biological target: T1, P2X7 receptor (Homo sapiens, UniProt Q99572); test: P2X7 calcium mobilization assay, high throughput, antagonist activity (Example 4A); format: cell-based; details: 50% decrease in the fluorescence response of cells exposed to 80 μM 2′(3′)-O-(4-benzoyl-benzoyl)adenosine 5′-triphosphate; Example 4A; read-out: IC50
T1 construct: host or cells: SH-SY5Y
T1 sequence (Q99572 1-595): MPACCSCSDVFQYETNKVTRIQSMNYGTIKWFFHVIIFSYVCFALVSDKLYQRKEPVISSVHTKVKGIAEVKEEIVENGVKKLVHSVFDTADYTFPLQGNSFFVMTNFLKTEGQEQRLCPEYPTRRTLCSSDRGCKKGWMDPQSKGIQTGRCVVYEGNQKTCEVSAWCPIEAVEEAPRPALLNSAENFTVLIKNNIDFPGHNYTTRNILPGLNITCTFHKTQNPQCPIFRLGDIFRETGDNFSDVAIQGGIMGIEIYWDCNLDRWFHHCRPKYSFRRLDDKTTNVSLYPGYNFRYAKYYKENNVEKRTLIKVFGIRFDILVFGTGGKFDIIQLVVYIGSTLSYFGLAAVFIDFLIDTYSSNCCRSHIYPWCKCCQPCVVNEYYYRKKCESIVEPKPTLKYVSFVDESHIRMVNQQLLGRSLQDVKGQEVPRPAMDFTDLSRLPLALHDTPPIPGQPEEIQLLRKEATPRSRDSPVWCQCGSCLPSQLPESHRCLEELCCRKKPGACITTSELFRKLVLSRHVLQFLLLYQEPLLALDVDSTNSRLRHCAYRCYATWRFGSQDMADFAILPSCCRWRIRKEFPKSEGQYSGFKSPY
In short: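 Antagonism was measured as calcium mobilization on FLIPR^TETRA after a 1 h room-temperature compound preincubation of dye-loaded cells. Baseline from no-agonist wells was subtracted from each well's maximum RFU.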

Row | SMILES | IC50 [nM]
1 | C[C@@H]1CN(C(=O)c2cn3c(C(=O)NCC45CC6CC(CC(C6)C4)C5)cccc3n2)CCN1 [Compound 604, N-(adamantan-1-ylmethyl)-2-{[(3R)-3-methylpiperazin-1-yl]carbonyl}imidazo[1,2-a]pyridine-5-carboxamide] | < 2000
2 | O=C(NCC12CC3CC(CC(C3)C1)C2)c1cccc2nc(C(=O)N3C[C@@H]4C[C@H]3CN4)cn12 [Compound 609, N-(adamantan-1-ylmethyl)-2-[(1S,4S)-2,5-diazabicyclo [2.2.1]hept-2-ylcarbonyl]imidazo[1,2-a]pyridine-5-carboxamide] | < 2000
3 | COC(=O)C1CCCN1C(=O)c1cn2c(C(=O)NC[C@@H]3CC[C@H]4C[C@@H]3C4(C)C)cccc2n1 (stereo partly drawn) [Compound 480, methyl 1-{[5-({[(1S,2R,5S)-6.6-dimethylbicyclo[3.1.1]hept-2-yl]methyl}carbamoyl)imidazo[1,2-a]pyridin-2-yl]carbonyl}prolinate] | < 2000
4 | CCN(C)C(=O)c1cn2c(C(=O)NC[C@@H]3CC[C@H]4C[C@@H]3C4(C)C)cccc2n1 [Compound 469, 5-N-{[(1S,2R,5S)-6,6-dimethylbicyclo[3.1.1]hept-2-yl]methyl}-2-N-ethyl-2-N-methylimidazo[1,2-a]pyridine-2,5-dicarboxamide] | < 2000

same assay, conditions: 50% decrease in the fluorescence response of cells exposed to 80 μM of 2′(3′)-O-(4-benzoyl-benzoyl)adenosine 5′-triphosphate; Example 4A; read-out: IC50

Row | SMILES | IC50 [nM]
5 | CC(CC#N)c1cn2c(C(=O)NCC34CC5CC(CC(C5)C3)C4)cccc2n1 (stereo not drawn) [Compound 748, N-(adamantan-1-ylmethyl)-2-(2-cyano-1-methylethyl) imidazo[1,2-a]pyridine-5-carboxamide] | < 2000
6 | CCOC(=O)C(Cc1cccnc1)c1cn2c(C(=O)NCC34CC5CC(CC(C5)C3)C4)cccc2n1 (stereo not drawn) [Compound 689, ethyl 2-{5-[(adamantan-1-ylmethyl)carbamoyl]imidazo[1,2-a]pyridin-2-yl}-3-pyridin-3-ylpropanoate] | < 2000
7 | COCCN(C)C1CCN(C(=O)c2cn3c(C(=O)NCC45CC6CC(CC(C6)C4)C5)cccc3n2)CC1 [Compound 720, N-(adamantan-1-ylmethyl)-2-({4-[(2-methoxyethyl)(methyl)amino]piperidin-1-yl}carbonyl)imidazo[l, 2-a]pyridine-5-carboxamide] | < 2000
8 | CN1CCCCC1CCNC(=O)c1cn2c(C(=O)NCC34CC5CC(CC(C5)C3)C4)cccc2n1 (stereo not drawn) [Compound 664, 5-N-(adamantan-1-ylmethyl)-2-N-[2-(1-methylpiperidin-2-yl)ethyl]imidazo[1,2-a]pyridine-2,5-dicarboxamide] | < 2000

same assay, conditions: 50% decrease in the fluorescence response of cells exposed to 80 μM of 2′(3′)-O-(4-benzoyl-benzoyl)adenosine 5′-triphosphate; determined as in Example 4A; read-out: IC50

Row | SMILES | IC50 [nM]
9 | O=C(NCC1(c2ccc(Cl)cc2)CCCCC1)c1cccc2nc(C(Cc3ccccn3)C(=O)O)cn12 (stereo not drawn) [Compound 937, 2-[5-({[1-(4-chlorophenyl)cyclohexyl]methyl}carbamoyl)imidazo[1,2-a]pyridin-2-yl]-3-pyridin-2-ylpropanoic acid] | < 2000
10 | CC(C)CC(CNC(=O)c1cccc2nc(Cn3ccc(N)n3)cn12)c1ccc(Cl)cc1 (stereo not drawn) [Compound 834, 2-[(3-amino-1H-pyrazol-1-yl)methyl]-N-[2-(4-chlorophenyl)-4-methylpentyl] imidazo [1,2-a]pyridine-5-carboxamide] | < 2000
11 | CC(C)CC(CNC(=O)c1cccc2nc(C(=O)n3ccc(N)n3)cn12)c1ccc(Cl)cc1 (stereo not drawn) [Compound 854, 2-[(3-amino-1H-pyrazol-1-yl)carbonyl]-N-[2-(4-chlorophenyl)-4-methylpentyl] imidazo [1,2-a]pyridine-5-carboxamide] | < 2000

same assay, conditions: P2X7 calcium mobilization, Example 4A; 50% decrease in the fluorescence response of cells exposed to 80 μM of (2′(3′)-O-(4-benzoyl-benzoyl)adenosine 5′-triphosephate); read-out: IC50

Row | SMILES | IC50 [nM]
12 | O=C(NCC(c1ccc(Cl)cc1)N1CCOCC1)c1cccc2ncc(Br)n12 (stereo not drawn) [Compound 1057, 3-bromo-N-[2-(4-chlorophenyl)-2-morpholin-4-ylethyl] imidazo[1,2-a] pyridine-5-carboxamide] | < 2000
13 | CC(C)CC(CNC(=O)c1cccc2nc(CN3CCOCC3)cn12)c1ccc(C(F)(F)F)nc1 (stereo not drawn) [Compound 1053, N-{4-methyl-2-[6-(trifluoromethyl)pyridin-3-yl]pentyl}-2-(morpholin-4-ylmethyl) imidazo[1,2-a]pyridine-5-carboxamide] | < 2000
14 | CCOC(=O)c1cn2cc(C(=O)NCC34CC5CC(CC(C5)C3)C4)ccc2n1 [Compound 1061, ethyl 6-[(adamantan-1-ylmethyl)carbamoyl] imidazo [1,2-a]pyridine-2-carboxylate] | < 2000

same assay, conditions: SH-SY5Y cells; 50% decrease in fluorescence response to 80 μM BzATP; read-out: IC50

Row | SMILES | IC50 [nM]
15 | COCCC1CCCN(C(=O)Cc2cn3c(C(=O)NCC45CC6CC(CC(C6)C4)C5)cccc3n2)C1 (stereo not drawn) [Compound 178, N-(adamantan-1-ylmethyl)-2-{2-[3-(2-methoxyethyl)piperidin-1-yl]-2-oxoethyl}imidazo[1,2-a]pyridine-5-carboxamide] | < 2000
16 | O=C(NCC12CC3CC(CC(C3)C1)C2)c1cccc2nc(CCN3CCC(O)CC3)cn12 [Compound 116, 2-[2-(4-hydroxy-piperidin-1-yl)-ethyl]-imidazo[1,2-a]pyridine-5-carboxylic acid (adamantan-1-ylmethyl)-amide] | < 2000
17 | CC1(O)CCN(C(=O)c2cn3c(C(=O)NCC45CC6CC(CC(C6)C4)C5)cccc3n2)CC1 [Compound 108, N-(adamantan-1-ylmethyl)-2-[(4-hydroxy-4-methylpiperidin-1-yl)carbonyl]imidazo[1,2-a]pyridine-5-carboxamide] | < 2000
18 | CN(C)C(=O)CNC(=O)c1cn2c(C(=O)NCC34CC5CC(CC(C5)C3)C4)cccc2n1 [Compound 74, 5-N-(adamantan-1-ylmethyl)--[2-(dimethylamino)-2-oxoethyl]imidazo[1,2-a]pyridine-2,5-dicarboxamide] | < 2000
19 | NC(=O)[C@H]1CCC[C@H]1NC(=O)Cc1cn2c(C(=O)NCC34CC5CC(CC(C5)C3)C4)cccc2n1 [Compound 161, N-(adamantan-1-ylmethyl)-2-(2-{[(1R,2S)-2-carbamoylcyclo-pentyl]amino}-2-oxoethyl)imidazo[1,2-a]pyridine-5-carboxamide] | < 2000

same assay, conditions: fluorescence response of cells exposed to 80 μM 2′(3′)-O-(4-benzoyl-benzoyl)adenosine 5′-triphosphate; Example 4A; read-out: IC50

Row | SMILES | IC50 [nM]
20 | N[C@@H]1CCN(Cc2cn3c(C(=O)NCCC45CC6CC(CC(C6)C4)C5)cccc3n2)C1 [Compound 248, N-(2-adamantan-1-ylethyl)-2-{[(3R)-3-aminopyrrolidin-1-yl]methyl}imidazo[1,2-a]pyridine-5-carboxamide] | < 2000
21 | CC1(C)[C@H]2CC[C@@H](CNC(=O)c3cccc4nc(C(=O)N5CCCNCC5)cn34)[C@@H]1C2 [Compound 304, 2-(1,4-diazepan-1-ylcarbonyl)-N-{[(1S,2R,5S)-6,6-dimethylbicyclo[3.1.1]hept-2-yl]methyl}imidazo[1,2-a]pyridine-5-carboxamide] | < 2000
22 | CCOC(=O)c1cn2c(C(=O)NC(C)C34CC5CC(CC(C5)C3)C4)cccc2n1 (stereo not drawn) [Compound 280, ethyl 5-[(1-adamantan-1-ylethyl)carbamoyl] imidazo[1,2-a] pyridine-2-carboxylate] | < 2000
23 | CN(CCNS(C)(=O)=O)C(=O)c1cn2c(NC(=O)CC34CC5CC(CC(C5)C3)C4)cccc2n1 [Compound 404, 5-[(adamantan-1-ylacetyl)amino]-N-methyl-N-{2-[(methylsulfonyl)amino]ethyl} imidazo[1,2-a] pyridine-2-carboxamide] | < 2000
24 | O=C(O)CSCc1cn2c(C(=O)NCC34CC5CC(CC(C5)C3)C4)cccc2n1 [Compound 287, [({5-[(adamantan-1-ylmethyl)carbamoyl]imidazo[1,2-a]pyridin-2-yl}methyl)thio]acetic acid] | < 2000

— patent publication US8431593B2, “Heteroaryl amide derivatives” (H. Lundbeck A/S, priority 2006, dated 2013)
